The record followed here is US9096605B2, “Pyrazolopyrimidine derivatives as PI3 kinase inhibitors” (GlaxoSmithKline LLC, priority 2011, dated 2015).

One assay addresses T1, PI3K-beta (Homo sapiens, UniProt P42338).
T1 construct: made in house
The assay can be described thus: HTRF in vitro profiling assay for PI3K inhibition (beta isoform). In kind it is biochemical. As to conditions: PI3K-beta enzyme pIC50 range, 200 pM enzyme, 100 uM ATP, 10 uM PIP2, 150 mM NaCl, corrected pIC50, read-out: PI3K-b Enz Activity. An excerpt: HTRF In Vitro Profiling Assays for PI3K Inhibition
The PI3-Kinase profiling assays were developed to measure the compound-dependent inhibition of the alpha, beta, delta, and gamma isoforms of PI3K in an in vitro catalytic assay. This assay was developed and optimized from a kit produced by Upstate (Millipore catalog #33-017). Briefly, this procedure utilizes a pre-formed HTRF (Homogeneous Time-Resolved Fluorescence energy transfer) complex between four binding partners: 1) biotinylated PIP3, 2) GST tagged pleckstrin homology (PH) domain, 3) Europium labeled anti-GST monoclonal antibody, and 4) Streptavidin-Allophycocyanin (APC). The native PIP3 produced by PI 3-Kinase activity displaces biotin-PIP3 from the PH domain, resulting in the dissociation of the HTRF complex and a decrease in the fluorescence signal. The format of this assay is the same for all 4 isoforms of PI3K; the differences lie in the concentration of enzyme used to achieve the most robust signal. The alpha and delta assays are run at 400 pM enzyme; the beta assay is at 200 pM enzyme and the gamma assay is run at 1 nM enzyme. In addition, the alpha, beta and delta assays are run with 150 mM NaCl while the gamma assay is run in the absence of NaCl. The ATP concentration is 100 uM in the alpha, beta, and delta assays and 15 uM ATP in the gamma assay. All reactions are run at 10 uM PIP2
Compounds are serially diluted (3-fold in 100% DMSO) across a 384-well polypropylene mother plate from column 1 to column 12 and column 13 to column 24, to yield 11 concentrations for each test compound. Columns 6 and 18 contain only DMSO. Once titrations are made, […] is transferred to a 384-well low-volume assay plate (Greiner 784076). This assay plate contains three pharmacological controls (known PI3K inhibitors) and 3 assay controls: (1) Enzyme without inhibitor; (2) Buffer minus enzyme, and (3) Buffer minus enzyme plus native PIP3. DMSO is stamped into all wells of columns 6 and 18. PIP3 is added at 40 μM in 1× Reaction buffer (1 μL of 200 μM PIP3) to alternating rows of column 18 (wells 18 B, D, F, H, J, L, N, P). The no-enzyme control reactions are run in wells 18 A, C, E, G, I, K, M, O (0.1 μL of 100% DMSO).
The PI3-Kinase profiling assay was optimized using the HTRF kit provided by Upstate (Millipore). The assay kit contains seven reagents: 1) 4× Reaction Buffer; 2) native PIP2 (substrate); 3) Stop A (EDTA); 4) Stop B (Biotin-PIP3); 5) Detection Mix A (Streptavidin-APC); 6) Detection Mix B (Eu-labeled Anti-GST plus GST-tagged PH-domain); 7) Detection Mix C (KF). In addition, the following items were obtained or purchased: PI3Kinase (prepared by GSK BR&AD), dithiothreitol (Sigma, D-5545), Adenosine-5′-triphosphate (ATP, Teknova cat. # A0220), native PIP3 (1,2-dioctanoyl-sn-glycero-3-[phosphoinositil-3,4,5-triphosphate]tetraammonium salt (Avanti polar lipids, 850186P), DMSO (Sigma, 472301).
PI3Kinase Reaction Buffer is prepared by diluting the stock 1:4 with de-ionized water. Freshly prepared DTT is added at a final concentration of 5 mM on the day of use. Enzyme addition and compound pre-incubation are initiated by the addition of 2.5 μL of PI3K (at twice its final concentration) in 1× reaction buffer to all wells using a Multidrop Combi. Plates are incubated at room temperature for 15 minutes. Reactions are initiated by addition of 2.5 μL of 2× substrate solution (PIP2 and ATP in 1× reaction buffer) using a Multidrop Combi. Plates are incubated at room temperature for one hour. Reactions are quenched by the addition of 2.5 μL of stop solution (Stop A and Stop B pre-mixed at a ratio of 5:1, respectively) to all wells using the Multidrop Combi. […]

Assay [1] has as its system pAKT(Ser473) in MDA-MB-468 cells. Briefly: pAKT(Ser473) assay in MDA-MB-468 cells. The conditions noted are these: Homo sapiens, 0.5 h, compound treatment 30 minutes, MSD ELISA phospho AKT(Ser473), given as ranges, read-out: Cell Activity—pAKT IC50 in MDA-MB-468. In kind it is cell-based. The protocol: pAKT(Ser473) Assay in MDA-MB-468 Cells
MDA-MB-468 cells were plated in 384-well flat clear bottom tissue culture plates (Corning #3701) at a density of 5000 cells per 0.057 cm2 in 48 ul of RPMI 1640 media supplemented with 10% fetal bovine serum (FBS). Cells were seeded with a Wellmate liquid handler (Matrix). Columns 1 through 23 were plated with cells and column 24 contained media alone. Cells were incubated at 37° C. with 5% CO2 for approximately 16-20 hours. Duplicate compound plates were prepared in 384-well polypropylene V-Bottom plates (Greiner #781280).
Compound titrations were made across the columns (A1-A20). 20 ul of compound was added to the first column and diluted into a 20 point curve with dimethylsulfoxide (DMSO, Thermo #TS2064) using a 2-fold dilution factor with a liquid handling robot (Hamilton). Columns 22 through 24 contained DMSO alone. Titrations were diluted 682-fold for compound treatment with 4 ul of compound added to 105 ul of RPMI media. Two ul of the diluted compound was added to the cell plates containing 48 ul of media using a multimek robot (Beckman Coulter). Final DMSO concentrations were 0.15%. Cells were treated with compound for 30 minutes at 37° C. with 5% CO2.
Following incubation, media was aspirated from dosed cell plates using an ELx405 plate washer (Bio-Tek) and 25 ul of 4° C. Meso Scale Discovery (MSD) lysis buffer with the addition of protease and phosphatase inhibitors (supplied in MSD kit #N31CB-1) was added to each well using a multidrop combi (Thermo). Precoated 4-spot per well MSD ELISA plates coated with total and phospho AKT(Ser473) antibody and BSA (supplied in kit) were blocked for 1 hour at room temperature with 35 ul per well of 1× MSD wash buffer+3% BSA (supplied in kit).
Blocked plates were washed 4 times with 100 ul per well of 1× Tris wash buffer (supplied in MSD kit) using an Elx405 plate washer (Bio-Tek). To each well, 20 ul of cell lysate was added using a multimek robot (Beckman Coulter) and the plate incubated at 4° C. overnight (˜12-24 hours). Following incubation, the ELISA plates were washed 4 times (100 ul/well) with 1× Tris wash buffer. Twenty microliters per well of 1× detection antibody (supplied in MSD kit) was added using a multidrop combi (Thermo), followed by a 2 hour incubation at room temperature. Detection antibody was aspirated and the plates washed 4 times (100 ul/well) with 1× Tris wash buffer. Read Buffer (supplied in MSD kit) was added at 1× (35 ul/well) at room temperature using a multidrop (Thermo). Relative luminescence units (RLU) were determined using a SECTOR™ Imager 6000 with MSD Workbench Software.
Concentration Response Curves for pAKT(Ser473):
For analysis of the pAKT(Ser473) concentration response curves, the data was normalized using Phospho AKT values divided by the sum of corresponding Total AKT and Phospho AKT values. The normalized values are plotted as the percent of the DMSO-treated control values on the corresponding plate. To determine IC50 values, the data is fit to a 4 parameter nonlinear sigmoidal dose response (variable slope) using GraphPad Prism version 4 for Windows, (GraphPad Software, San Diego Calif. USA). Criteria for curve fitting and IC50 determination include that the IC50 values from duplicate runs must be within 2 to 3-fold of each other, the Y min must be less than or equal to 30% of the DMSO-treated control and the Y max must range between 80-120%. Any data point equal to or greater than 40% of the curve was not utilized.

Some results are limits rather than exact numbers.

T1 sequence (P42338 whole entry): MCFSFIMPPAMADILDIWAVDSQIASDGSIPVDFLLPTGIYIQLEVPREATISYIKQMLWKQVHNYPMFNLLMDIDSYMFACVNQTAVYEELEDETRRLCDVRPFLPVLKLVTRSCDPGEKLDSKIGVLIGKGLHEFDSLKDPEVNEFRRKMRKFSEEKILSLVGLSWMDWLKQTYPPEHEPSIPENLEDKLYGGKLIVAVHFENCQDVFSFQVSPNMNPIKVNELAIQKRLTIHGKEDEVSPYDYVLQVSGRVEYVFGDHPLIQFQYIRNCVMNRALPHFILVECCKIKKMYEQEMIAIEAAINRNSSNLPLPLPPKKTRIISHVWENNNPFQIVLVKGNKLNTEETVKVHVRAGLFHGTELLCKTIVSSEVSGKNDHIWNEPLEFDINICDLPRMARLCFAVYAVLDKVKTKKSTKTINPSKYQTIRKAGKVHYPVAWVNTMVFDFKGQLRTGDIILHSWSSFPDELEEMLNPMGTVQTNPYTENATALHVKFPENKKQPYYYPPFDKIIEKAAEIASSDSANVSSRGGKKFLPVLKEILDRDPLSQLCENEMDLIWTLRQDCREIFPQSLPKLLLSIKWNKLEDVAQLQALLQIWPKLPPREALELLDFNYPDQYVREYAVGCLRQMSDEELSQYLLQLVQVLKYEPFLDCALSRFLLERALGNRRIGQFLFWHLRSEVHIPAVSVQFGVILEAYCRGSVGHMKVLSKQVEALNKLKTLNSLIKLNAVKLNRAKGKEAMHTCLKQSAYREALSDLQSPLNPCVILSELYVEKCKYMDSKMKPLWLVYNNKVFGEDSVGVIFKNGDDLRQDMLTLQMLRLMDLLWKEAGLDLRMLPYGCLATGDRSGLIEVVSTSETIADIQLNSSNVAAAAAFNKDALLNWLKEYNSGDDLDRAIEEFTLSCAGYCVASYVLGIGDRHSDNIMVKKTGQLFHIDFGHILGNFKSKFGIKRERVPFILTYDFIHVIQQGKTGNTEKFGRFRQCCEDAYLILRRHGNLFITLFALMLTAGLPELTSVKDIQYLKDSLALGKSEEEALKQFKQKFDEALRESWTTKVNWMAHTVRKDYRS
T1 sequence (P27986 whole entry partner): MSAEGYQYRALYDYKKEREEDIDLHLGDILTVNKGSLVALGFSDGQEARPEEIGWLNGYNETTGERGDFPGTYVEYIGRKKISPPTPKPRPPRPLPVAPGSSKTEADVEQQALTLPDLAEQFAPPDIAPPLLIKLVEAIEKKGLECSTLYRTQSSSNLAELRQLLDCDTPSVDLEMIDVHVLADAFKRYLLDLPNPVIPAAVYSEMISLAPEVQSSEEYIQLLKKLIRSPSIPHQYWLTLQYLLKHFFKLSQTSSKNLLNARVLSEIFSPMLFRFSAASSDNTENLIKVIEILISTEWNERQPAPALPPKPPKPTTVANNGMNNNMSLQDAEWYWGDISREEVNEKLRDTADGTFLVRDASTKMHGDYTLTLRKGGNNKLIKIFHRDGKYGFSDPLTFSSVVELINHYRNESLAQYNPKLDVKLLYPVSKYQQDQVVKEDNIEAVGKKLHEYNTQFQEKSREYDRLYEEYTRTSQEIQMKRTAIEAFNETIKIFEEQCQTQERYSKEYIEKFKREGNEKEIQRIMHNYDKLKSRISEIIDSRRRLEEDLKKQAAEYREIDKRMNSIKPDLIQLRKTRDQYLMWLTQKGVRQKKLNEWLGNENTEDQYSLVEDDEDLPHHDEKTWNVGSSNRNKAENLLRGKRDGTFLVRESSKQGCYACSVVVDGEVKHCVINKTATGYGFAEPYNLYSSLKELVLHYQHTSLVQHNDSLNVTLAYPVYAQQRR

For `CCc1nn2c(O)cc(-c3ccncc3)nc2c1Cc1cccc(Cl)c1Cl` [Example 31, 3-(2,3-dichlorobenzyl)-2-ethyl-5-(pyridin-4-yl)pyrazolo[1,5-a]pyrimidin-7-ol], the IC50 at PI3K-beta is 0.000126 to 0.001 µM; in assay [1] it was > 20 µM.

Regarding `Oc1cc(-c2ccncc2)nc2c(Cc3cccc(Cl)c3Cl)c(C(F)(F)F)nn12` [Example 32, 3-(2,3-dichlorobenzyl)-5-(pyridin-4-yl)-2-(trifluoromethyl)pyrazolo[1,5-a]pyrimidin-7-ol], the results for the IC50 (at PI3K-beta; in assay [1]) were 0.00126 to 0.01 µM and 11 to 20 µM, respectively.

`Cc1c(Cc2cccc(Cl)c2Cl)c2nc(-c3ccncc3)cc(=O)n2n1C` [Example 33, 3-(2,3-dichlorobenzyl)-1,2-dimethyl-5-(pyridin-4-yl)pyrazolo[1,5-a]pyrimidin-7(1H)-one]: the IC50 is 0.126 to 1.26 µM on PI3K-beta and > 20 µM in assay [1].

Turning to `COc1nn2c(O)cc(-c3ccncc3)nc2c1Cc1cccc(Cl)c1Cl` [Example 35, 3-(2,3-dichlorobenzyl)-2-methoxy-5-(pyridin-4-yl)pyrazolo[1,5-a]pyrimidin-7-ol], the IC50 lay in the range of 0.00126 to 0.01 µM at PI3K-beta and 11 to 20 µM in assay [1].

Regarding `Cc1nn2c(C(=O)O)cc(N3CCOCC3)nc2c1Cc1cccc(C(F)(F)F)c1C` [Example 36, 2-methyl-3-(2-methyl-3-(trifluoromethyl)benzyl)-5-morpholinopyrazolo[1,5-a]pyrimidine-7-carboxylic acid], the figures for the IC50 (at PI3K-beta; in assay [1]) were 0.00126 to 0.01 µM and 1 to 5 µM, respectively.

As to `Cc1nn2c(C(=O)O)cc(N3CCOCC3)nc2c1Cc1cccc2ccccc12` [Example 37, 2-methyl-5-morpholino-3-(naphthalen-1-ylmethyl)pyrazolo[1,5-a]pyrimidine-7-carboxylic acid], the IC50 on PI3K-beta was in the range of 0.0126 to 0.1 µM; in assay [1], 1 to 5 µM.

Consider `Cc1nn2c(C(N)=O)cc(N3CCOCC3)nc2c1Cc1cccc2ccccc12` [Example 38, 2-methyl-5-morpholino-3-(naphthalen-1-ylmethyl)pyrazolo[1,5-a]pyrimidine-7-carboxamide], for which the IC50 on PI3K-beta was 0.0126 to 0.1 µM; in assay [1] it was < 1 µM.

For the compound `Cc1nn2c(C(N)=O)cc(N3CCOCC3)nc2c1Cc1cccc(C(F)(F)F)c1C` [Example 39, 2-methyl-3-(2-methyl-3-(trifluoromethyl)benzyl)-5-morpholinopyrazolo[1,5-a]pyrimidine-7-carboxamide], the IC50 on PI3K-beta is 0.0126 to 0.1 µM; in assay [1], > 20 µM.

Regarding `Cc1nn2c(-c3nc[nH]n3)cc(N3CCOCC3)nc2c1Cc1cccc2ccccc12` [Example 40, 4-(2-methyl-3-(naphthalen-1-ylmethyl)-7-(1H-1,2,4-triazol-3-yl)pyrazolo[1,5-a]pyrimidin-5-yl)morpholine], the IC50 at PI3K-beta is 0.00126 to 0.01 µM; in assay [1], < 1 µM.

Take `Cc1nn2c(-c3nc[nH]n3)cc(N3CCOCC3)nc2c1Cc1cccc(C(F)(F)F)c1C` [Example 41, 4-(2-methyl-3-(2-methyl-3-(trifluoromethyl)benzyl)-7-(1H-1,2,4-triazol-3-yl)pyrazolo[1,5-a]pyrimidin-5-yl)morpholine]: the IC50 on PI3K-beta is 0.00126 to 0.01 µM; in assay [1] it was 6 to 10 µM.

Regarding `Cc1nn2c(-c3cc[nH]n3)cc(N3CCOCC3)nc2c1Cc1cccc2ccccc12` [Example 42, 4-(2-methyl-3-(naphthalen-1-ylmethyl)-7-(1H-pyrazol-3-yl)pyrazolo[1,5-a]pyrimidin-5-yl)morpholine], the IC50 was 0.00126 to 0.01 µM on PI3K-beta and < 1 µM in assay [1].

As to `Cc1nn2c(-c3ncc[nH]3)cc(N3CCOCC3)nc2c1Cc1cccc2ccccc12` [Example 43, 4-(7-(1H-imidazol-2-yl)-2-methyl-3-(naphthalen-1-ylmethyl)pyrazolo[1,5-a]pyrimidin-5-yl)morpholine], the IC50 at PI3K-beta is 0.00126 to 0.01 µM; in assay [1], < 1 µM.

Turning to `Cc1nn2c(C#N)cc(N3CCOCC3)nc2c1Cc1cccc(C(F)(F)F)c1C` [Example 45, 2-methyl-3-(2-methyl-3-(trifluoromethyl)benzyl)-5-morpholinopyrazolo[1,5-a]pyrimidine-7-carbonitrile], the IC50 at PI3K-beta was 0.126 to 1.26 µM; in assay [1], > 20 µM.

On to `Cc1nn2c(-c3nn[nH]n3)cc(N3CCOCC3)nc2c1Cc1cccc(C(F)(F)F)c1C` [Example 46, 4-(2-methyl-3-(2-methyl-3-(trifluoromethyl)benzyl)-7-(2H-tetrazol-5-yl)pyrazolo[1,5-a]pyrimidin-5-yl)morpholine], for which the IC50 on PI3K-beta is 0.0126 to 0.1 µM; in assay [1], 1 to 5 µM.

Regarding `Cc1nn2c(-c3nn[nH]n3)cc(N3CCOCC3)nc2c1Cc1cccc2ccccc12` [Example 47, 4-(2-methyl-3-(naphthalen-1-ylmethyl)-7-(1H-tetrazol-5-yl)pyrazolo[1,5-a]pyrimidin-5-yl)morpholine], the IC50 on PI3K-beta is 0.0126 to 0.1 µM; in assay [1] it was 1 to 5 µM.
